Experimental data taken from article PMC9090415, “Discovery of small molecule inhibitors of Plasmodium falciparum apicoplast DNA polymerase” (Journal of Enzyme Inhibition and Medicinal Chemistry, 2022).

Molecular target: T1, bacteriophage T4 DNA polymerase (Enterobacteria phage T4, UniProt P04415)
T1 construct: made in house
T1 sequence (P04415 1-898): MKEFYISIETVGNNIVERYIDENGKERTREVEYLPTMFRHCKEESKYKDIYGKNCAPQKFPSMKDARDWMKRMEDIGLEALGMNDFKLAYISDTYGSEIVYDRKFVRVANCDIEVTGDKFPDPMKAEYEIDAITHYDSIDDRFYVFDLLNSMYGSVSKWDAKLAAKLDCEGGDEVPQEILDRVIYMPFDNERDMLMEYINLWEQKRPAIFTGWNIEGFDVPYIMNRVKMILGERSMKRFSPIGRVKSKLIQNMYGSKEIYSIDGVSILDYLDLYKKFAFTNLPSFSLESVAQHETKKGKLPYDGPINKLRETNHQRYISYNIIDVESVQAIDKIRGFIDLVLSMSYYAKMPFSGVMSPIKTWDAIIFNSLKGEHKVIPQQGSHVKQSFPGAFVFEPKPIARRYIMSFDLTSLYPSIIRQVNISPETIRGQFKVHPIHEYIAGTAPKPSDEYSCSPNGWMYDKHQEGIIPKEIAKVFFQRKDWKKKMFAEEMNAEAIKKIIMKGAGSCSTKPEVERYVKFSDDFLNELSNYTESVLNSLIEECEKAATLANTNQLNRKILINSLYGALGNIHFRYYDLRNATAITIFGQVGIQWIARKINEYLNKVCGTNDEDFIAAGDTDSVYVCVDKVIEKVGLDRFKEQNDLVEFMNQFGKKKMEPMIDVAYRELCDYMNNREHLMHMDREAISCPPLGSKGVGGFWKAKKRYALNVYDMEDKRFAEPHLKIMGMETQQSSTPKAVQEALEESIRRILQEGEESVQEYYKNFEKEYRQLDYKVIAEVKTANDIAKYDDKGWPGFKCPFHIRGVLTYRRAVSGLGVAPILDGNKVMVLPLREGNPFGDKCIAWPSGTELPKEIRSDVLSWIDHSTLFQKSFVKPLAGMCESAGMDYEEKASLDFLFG
Assay: Counter-screen against bacteriophage T4 DNA polymerase
Type: biochemical
Conditions: for % inhibition T4 10' 2.5 / % inhibition T4 10' 5 / % inhibition T4 10' 10 / % inhibition T4 10' 20 / % inhibition T4 10' 40 / % inhibition T4 10' 80: read at 10'; for % inhibition T4 10' 2.5 / % inhibition T4 70' 2.5 / % inhibition T4 130' 2.5 / % inhibition T4 40' 2.5 / % inhibition T4 90' 2.5 / % inhibition T4 180' 2.5: concentration 2.5; for % inhibition T4 10' 5 / % inhibition T4 70' 5 / % inhibition T4 130' 5 / % inhibition T4 40' 5 / % inhibition T4 90' 5 / % inhibition T4 180' 5: concentration 5; for % inhibition T4 10' 10 / % inhibition T4 70' 10 / % inhibition T4 130' 10 / % inhibition T4 40' 10 / % inhibition T4 90' 10 / % inhibition T4 180' 10: concentration 10; for % inhibition T4 70' 2.5 / % inhibition T4 70' 5 / % inhibition T4 70' 10 / % inhibition T4 70' 20 / % inhibition T4 70' 40 / % inhibition T4 70' 80: read at 70'; for % inhibition T4 130' 2.5 / % inhibition T4 130' 5 / % inhibition T4 130' 10 / % inhibition T4 130' 20 / % inhibition T4 130' 40 / % inhibition T4 130' 80: read at 130'; for % inhibition T4 40' 2.5 / % inhibition T4 40' 5 / % inhibition T4 40' 10 / % inhibition T4 40' 20 / % inhibition T4 40' 40 / % inhibition T4 40' 80: read at 40'; for % inhibition T4 90' 2.5 / % inhibition T4 90' 5 / % inhibition T4 90' 10 / % inhibition T4 90' 20 / % inhibition T4 90' 40 / % inhibition T4 90' 80: read at 90'; for % inhibition T4 180' 2.5 / % inhibition T4 180' 5 / % inhibition T4 180' 10 / % inhibition T4 180' 20 / % inhibition T4 180' 40 / % inhibition T4 180' 80: read at 180'
How it was run: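 IC50 values come from dose-response testing of each compound against T4 DNA polymerase. This B-family polymerase was purified in-house and used as the counter-screen.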

O=C1CSC2=NC3=C(CCc4ccccc43)C(c3cccs3)N12 (stereo not drawn) [Molecule 59, O=C1CSC2=NC3=C(C(N12)c1cccs1)CCc1c3cccc1]
% inhibition T4 10' 2.5 (DRC-1): 10.0127%
% inhibition T4 10' 5 (DRC-1): 9.284%
% inhibition T4 10' 10 (DRC-1): 14.9012%
% inhibition T4 10' 20 (DRC-1, concentration 20): 17.5613%
% inhibition T4 10' 40 (DRC-1, concentration 40): 23.9437%
% inhibition T4 10' 80 (DRC-1, concentration 80): 22.8817%
% inhibition T4 70' 2.5 (DRC-1): 9.951%
% inhibition T4 70' 5 (DRC-1): 10.6029%
% inhibition T4 70' 10 (DRC-1): 14.1389%
% inhibition T4 70' 20 (DRC-1, concentration 20): 13.8668%
% inhibition T4 70' 40 (DRC-1, concentration 40): 19.0347%
% inhibition T4 70' 80 (DRC-1, concentration 80): 18.0959%
% inhibition T4 130' 2.5 (DRC-1): 7.352%
% inhibition T4 130' 5 (DRC-1): 7.713%
% inhibition T4 130' 10 (DRC-1): 10.7499%
% inhibition T4 130' 20 (DRC-1, concentration 20): 9.8688%
% inhibition T4 130' 40 (DRC-1, concentration 40): 15.3496%
% inhibition T4 130' 80 (DRC-1, concentration 80): 16.7896%
% inhibition T4 10' 2.5 (DRC-2): 31%
% inhibition T4 10' 5 (DRC-2): 18%
% inhibition T4 10' 10 (DRC-2): 6.37%
% inhibition T4 10' 20 (DRC-2, concentration 20): 8%
% inhibition T4 10' 40 (DRC-2, concentration 40): 6%
% inhibition T4 10' 80 (DRC-2, concentration 80): 11%
% inhibition T4 40' 2.5 (DRC-2): 31%
% inhibition T4 40' 5 (DRC-2): 18%
% inhibition T4 40' 10 (DRC-2): 6.37%
% inhibition T4 40' 20 (DRC-2, concentration 20): 8%
% inhibition T4 40' 40 (DRC-2, concentration 40): 6%
% inhibition T4 40' 80 (DRC-2, concentration 80): 11%
% inhibition T4 90' 2.5 (DRC-2): 30%
% inhibition T4 90' 5 (DRC-2): 18%
% inhibition T4 90' 10 (DRC-2): 8%
% inhibition T4 90' 20 (DRC-2, concentration 20): 8%
% inhibition T4 90' 40 (DRC-2, concentration 40): 6.37%
% inhibition T4 90' 80 (DRC-2, concentration 80): 11%
% inhibition T4 180' 2.5 (DRC-2): 24%
% inhibition T4 180' 5 (DRC-2): 15%
% inhibition T4 180' 10 (DRC-2): 5%
% inhibition T4 180' 20 (DRC-2, concentration 20): 4%
% inhibition T4 180' 40 (DRC-2, concentration 40): 5.53%
% inhibition T4 180' 80 (DRC-2, concentration 80): 9%

CC(=O)OCC1=C(C(=O)[O-])N2C(=O)[C@@H](NC(=O)Cc3cccs3)[C@H]2SC1.[Na+] [Molecule 73, CC(=O)OCC1=C(C(=O)[O-])N2[C@H](SC1)[C@@H](C2=O)NC(=O)Cc1cccs1.[Na+]]
% inhibition T4 10' 2.5 (DRC-1): 11.7205%
% inhibition T4 10' 5 (DRC-1): 17.9504%
% inhibition T4 10' 10 (DRC-1): 24.8784%
% inhibition T4 10' 20 (DRC-1, concentration 20): 32.107%
% inhibition T4 10' 40 (DRC-1, concentration 40): 49.9492%
% inhibition T4 10' 80 (DRC-1, concentration 80): 43.1529%
% inhibition T4 70' 2.5 (DRC-1): 9.196%
% inhibition T4 70' 5 (DRC-1): 11.8887%
% inhibition T4 70' 10 (DRC-1): 17.9088%
% inhibition T4 70' 20 (DRC-1, concentration 20): 22.6844%
% inhibition T4 70' 40 (DRC-1, concentration 40): 42.1653%
% inhibition T4 70' 80 (DRC-1, concentration 80): 41.199%
% inhibition T4 130' 2.5 (DRC-1): 4.91%
% inhibition T4 130' 5 (DRC-1): 7.499%
% inhibition T4 130' 10 (DRC-1): 13.1805%
% inhibition T4 130' 20 (DRC-1, concentration 20): 16.8593%
% inhibition T4 130' 40 (DRC-1, concentration 40): 38.0136%
% inhibition T4 130' 80 (DRC-1, concentration 80): 33.8147%
% inhibition T4 10' 2.5 (DRC-2): 0.14%
% inhibition T4 10' 5 (DRC-2): 0.574%
% inhibition T4 10' 10 (DRC-2): 12%
% inhibition T4 10' 20 (DRC-2, concentration 20): 17%
% inhibition T4 10' 40 (DRC-2, concentration 40): 26%
% inhibition T4 10' 80 (DRC-2, concentration 80): 36%
% inhibition T4 40' 2.5 (DRC-2): 0.442%
% inhibition T4 40' 5 (DRC-2): 0.491%
% inhibition T4 40' 10 (DRC-2): 11%
% inhibition T4 40' 20 (DRC-2, concentration 20): 17%
% inhibition T4 40' 40 (DRC-2, concentration 40): 25%
% inhibition T4 40' 80 (DRC-2, concentration 80): 42%
% inhibition T4 90' 2.5 (DRC-2): 1.28%
% inhibition T4 90' 10 (DRC-2): 10%
% inhibition T4 90' 20 (DRC-2, concentration 20): 17%
% inhibition T4 90' 40 (DRC-2, concentration 40): 23%
% inhibition T4 90' 80 (DRC-2, concentration 80): 41%
% inhibition T4 180' 2.5 (DRC-2): 0.485%
% inhibition T4 180' 5 (DRC-2): -2.85%
% inhibition T4 180' 10 (DRC-2): 6.41%
% inhibition T4 180' 20 (DRC-2, concentration 20): 14%
% inhibition T4 180' 40 (DRC-2, concentration 40): 20%
% inhibition T4 180' 80 (DRC-2, concentration 80): 41%

N#Cc1c(O)nc(N2CCCCC2)nc1-c1ccc2c(c1)OCO2 [KU0083146]
% inhibition T4 10' 2.5 (DRC-1): -1.681%
% inhibition T4 10' 5 (DRC-1): -6.153%
% inhibition T4 10' 10 (DRC-1): -0.208%
% inhibition T4 10' 20 (DRC-1, concentration 20): -4.89%
% inhibition T4 10' 40 (DRC-1, concentration 40): 2.23%
% inhibition T4 10' 80 (DRC-1, concentration 80): 27.8578%
% inhibition T4 70' 2.5 (DRC-1): -2.1541%
% inhibition T4 70' 5 (DRC-1): -7.277%
% inhibition T4 70' 10 (DRC-1): -0.8576%
% inhibition T4 70' 20 (DRC-1, concentration 20): -6.699%
% inhibition T4 70' 40 (DRC-1, concentration 40): -0.3941%
% inhibition T4 70' 80 (DRC-1, concentration 80): 25.8853%
% inhibition T4 130' 2.5 (DRC-1): -4.596%
% inhibition T4 130' 5 (DRC-1): -9.967%
% inhibition T4 130' 10 (DRC-1): -3.465%
% inhibition T4 130' 20 (DRC-1, concentration 20): -8.629%
% inhibition T4 130' 40 (DRC-1, concentration 40): -2.723%
% inhibition T4 130' 80 (DRC-1, concentration 80): 26.2784%
% inhibition T4 10' 2.5 (DRC-2): 12%
% inhibition T4 10' 5 (DRC-2): 9%
% inhibition T4 10' 10 (DRC-2): -0.482%
% inhibition T4 10' 20 (DRC-2, concentration 20): -17%
% inhibition T4 10' 40 (DRC-2, concentration 40): -12%
% inhibition T4 10' 80 (DRC-2, concentration 80): -1.89%
% inhibition T4 40' 2.5 (DRC-2): 13%
% inhibition T4 40' 5 (DRC-2): 10%
% inhibition T4 40' 10 (DRC-2): 2%
% inhibition T4 40' 20 (DRC-2, concentration 20): -13%
% inhibition T4 40' 40 (DRC-2, concentration 40): -9%
% inhibition T4 40' 80 (DRC-2, concentration 80): 3.39%
% inhibition T4 90' 2.5 (DRC-2): 13%
% inhibition T4 90' 5 (DRC-2): 12%
% inhibition T4 90' 10 (DRC-2): 2.84%
% inhibition T4 90' 20 (DRC-2, concentration 20): -10%
% inhibition T4 90' 40 (DRC-2, concentration 40): -5.54%
% inhibition T4 90' 80 (DRC-2, concentration 80): 3.63%
% inhibition T4 180' 2.5 (DRC-2): 12%
% inhibition T4 180' 5 (DRC-2): 11%
% inhibition T4 180' 10 (DRC-2): 4%
% inhibition T4 180' 20 (DRC-2, concentration 20): -10%
% inhibition T4 180' 40 (DRC-2, concentration 40): -6.49%
% inhibition T4 180' 80 (DRC-2, concentration 80): 2.15%

O=C(Nc1ccc2c(c1)Cc1cc(NC(=O)c3ccco3)ccc1-2)c1ccco1 [KU0038977]
% inhibition T4 10' (DRC-2, 10', concentration 80): 20%
% inhibition T4 40' (DRC-2, concentration 20): 25%
% inhibition T4 40' (DRC-2, concentration 40): 35%
% inhibition T4 90' (DRC-2, concentration 20): 25%
% inhibition T4 90' (DRC-2, concentration 40): 35%
% inhibition T4 90' (DRC-2, concentration 80): 35%
% inhibition T4 180' (DRC-2, 180', concentration 20): 20%
